From patent publication US20240360103A1, “COMPLEMENT INHIBITION” (Apellis Pharmaceuticals, Inc., priority 2021, published 2024)

How the values were obtained:
C3 convertase (CVF:Bb) = C3 convertase (CVF:Bb) (Homo sapiens, UniProt P00751); test: C3 Convertase Assay (biochemical assay, compound contacted with CVF:Bb, then C3 substrate added)
Excerpt: Various technologies are available for assessing provided compounds, compositions and methods. In some embodiments, a useful assay is an assay described below. […] In some embodiments, a purified, isolated or enriched C3 convertase is utilized. […] In some embodiments, a compound was first contacted with CVF:Bb, followed by addition of C3 substrates. As those skilled in the art will appreciate, products C3a and/or C3b could be detected through a number of technologies (e.g., antibodies specific for a product) and reduction of levels of one or both of them could be utilized to assess inhibition.

[1] = tested on: complement alternative pathway; test: Wieslab AP assay (Complement Alternative Pathway ELISA, human serum as source of complement); format: biochemical; settings: read-out: B: Wieslab AP IC50 (nM) (alternative pathway)
Excerpt: Among other things, the present disclosure provides compounds and compositions that can modulate complement activation. In some embodiments, provided technologies inhibit complement activation. In some embodiments, provided technologies inhibit C3 convertase. Various technologies are available for assessing provided compounds, compositions and methods. In some embodiments, a useful assay is an assay described below. In some embodiments, IC50 of a provided compound measured in an assay is about or no more than about 1000, 900, 800, 700, 600, 500, 400, 300, 200, 100, 90, 80, 70, 60, 50, 40, 30, 20, or 10 nM. In some embodiments, a useful assay is a biochemical assay assessing inhibition of C3 convertase activity by a provided compound. In some embodiments, a purified, isolated or enriched C3 convertase is utilized. In some embodiments, CVF:Bb (e.g., assembled from three components Cobra Venom Factor (CVF), Complement Factor B (FB) and Complement Factor D (FD)) was utilized (certain results are presented as “A” in the Table below). In some embodiments, a compound was first contacted with CVF:Bb, followed by addition of C3 substrates. As those skilled in the art will appreciate, products C3a and/or C3b could be detected through a number of technologies (e.g., antibodies specific for a product) and reduction of levels of one or both of them could be utilized to assess inhibition. In some embodiments, a useful assay is Wieslab© assay (certain results are presented as “B” in the Table below).
In some embodiments, classical and alternative pathway activity are assessed using Wieslab© technologies. In some embodiments, Wieslab© assay were performed with a commercially available kit, using a protocol adapted for measurement of complement inhibitory activity of compounds. In some embodiments, human serum was utilized as a positive control. In some embodiments, human serum serves as a source of complement proteins, and inhibition of complement activity of a serum by various compounds were assessed. In some embodiments, a kit is COMPL AP330, Complement Alternative Pathway ELISA, Eagle Biosciences. In some embodiments, a kit is COMPL CP310, Complement Classical Pathway ELISA, Eagle Biosciences. In some embodiments, kits are available from VWR (102994-104, Complement Alternative pathway ELISA, Eagle Biosciences, Inc.; 102994-106, Complement Classical pathway ELISA, Eagle Biosciences, Inc.).
In some embodiments, a useful procedure described below is utilized. • 1. Make fresh test compound stock at 1 mM. • 2. Test compound serial dilution: dilute the stock to working stock concentrations. Add DMSO to dilution buffer using same dilution factor for the working stock so the composition of all the serial diluted stock is the same. In some embodiments, stock was serial diluted from the working stock 1:4 (for classical pathway) or 1:2 (for alternative pathway) using new diluted dilution buffers. • 3. Dilute positive controls using the dilution buffer provided with the assay kit to 2× of the final conc., for classical pathway, 50.5×. Positive control is human serum, which contains complement proteins. • 4. Add 125 μL of test compound solution and 125 μL of diluted positive control to a 96 well polypropylene plate, mix gently and cover the plate and incubate at 4° C. for 30 min. • 5. Add 100 μL/well to the assay plate and incubate at 37° C. for 1 h. Typically, controls in the assay plate, for example, buffer alone for negative control, positive control alone to verify the complement activity of the reagent. • 6. Wash plate and add 100 μL/well conjugate, incubate at room temperature for 30 min. • 7. Wash plate and add 100 μL/well substrate, then incubate at room temperature for approximately 30 minutes. Periodically monitor the absorbance at 405 nm (OD405) in the positive control alone well. • 8. Once the OD405 is >1, read the whole plate immediately. Or stop the reaction by adding 100 μL of 5 mM EDTA to each well and read within 60 minutes.

complement activation = settings: relative to compstatin amidated at the C-terminus; published data; cited from earlier work

C3 convertase (CVF:Bb), sequence (P00751 260-764 limits assumed): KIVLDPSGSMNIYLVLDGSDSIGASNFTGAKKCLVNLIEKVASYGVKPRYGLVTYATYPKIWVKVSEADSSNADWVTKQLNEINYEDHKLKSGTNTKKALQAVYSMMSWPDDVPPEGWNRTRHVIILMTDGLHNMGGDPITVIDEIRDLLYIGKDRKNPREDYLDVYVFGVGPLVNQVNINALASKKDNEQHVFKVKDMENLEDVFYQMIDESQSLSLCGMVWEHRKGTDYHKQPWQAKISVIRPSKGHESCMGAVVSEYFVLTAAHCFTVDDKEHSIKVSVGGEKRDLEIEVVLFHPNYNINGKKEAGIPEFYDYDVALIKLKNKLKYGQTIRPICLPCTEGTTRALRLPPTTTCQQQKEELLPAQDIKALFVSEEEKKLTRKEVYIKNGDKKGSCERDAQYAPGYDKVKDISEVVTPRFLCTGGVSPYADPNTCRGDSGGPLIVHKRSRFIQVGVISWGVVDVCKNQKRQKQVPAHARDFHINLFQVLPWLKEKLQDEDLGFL

| Molecule | IC50 (C3 convertase (CVF:Bb)) [nM] | IC50 [1] [nM] | Activity over compstatin (complement activation) [xmore] |
| --- | --- | --- | --- |
| COc1cc(C)c2[nH]ccc2c1CN1CCN(C(C)C(F)F)C[C@H]1c1ccc(C(=O)O)cc1 (stereo partly drawn) | 228 | 230 |  |
| COc1cc(C)c2[nH]ccc2c1CN1CCN(CCC(F)(F)F)C[C@H]1c1ccc(C(=O)O)cc1 | 29 | 13 |  |
| COc1cc(C)c2[nH]ccc2c1CN1CCN(CC(F)(F)F)C[C@H]1c1ccc(C(=O)NS(C)(=O)=O)cc1 | 212 | 382 |  |
| Ac-ICV(Bpa)QDWGAHRCT-CONH2 [Ac-V4(Bpa)/H9A] |  |  | 86 |
| COc1cc(C)c2[nH]ccc2c1CN1CCN(CCO)C[C@H]1c1ccc(C(=O)O)cc1 | 350 | 128 |  |
| Ac-ICVWQDWGAHRCT-CONH2 (Ac-ICVWQDWGAHRCT-NH2; cysteine pairing not given here) [Ac-V4W/H9A, "compstatin analogs useful in the present disclosure"] |  |  | 45 |
| COc1cc(C)c2[nH]ccc2c1CN1CCN(CCC(F)F)C[C@H]1c1ccc(C(=O)O)cc1 | 27 | 27 |  |
| COc1cc(C)c2[nH]ccc2c1CN1CC(=O)N(C)C[C@H]1c1ccc(C(=O)O)cc1 | 6400 | 1000 |  |
| COc1cc(C)c2[nH]ccc2c1CN1CCN(CCC(F)(F)F)C[C@@H]1c1ccc(C(=O)O)nc1 | 6440 | > 10000 |  |
| Ac-ICV(2-Igl)QDWGAHRCT-CONH2 [Ac-V42Igl/H9A] |  |  | 39 |
| COc1cc(C)c2[nH]ccc2c1CN1CCN(C)C[C@H]1c1ccc(C(=O)O)cc1 (single isomer, unassigned) | 45 | 64 |  |
| Ac-ICV(2-Nal)QDWGAHRCT-COOH [Ac V4(2-Nal)/H9A-OH] |  |  | 38 |
| Ac-ICV(Bpa)QDWGAHRCT-COOH [Ac-V4(Bpa)/H9A-OH] |  |  | 49 |
| C=CCN1CCN(Cc2c(OC)cc(C)c3[nH]ccc23)C(c2ccc(C(=O)O)cc2)C1 (stereo not drawn) | 250 | 1490 |  |
| COc1cc(C)c2[nH]ccc2c1CN1CCN(CC(F)F)CC1c1ccc(C(=O)O)cc1 (stereo not drawn) | 76 | 36 |  |
| COc1cc(C)c2[nH]ccc2c1CN1CCN(C)C(=O)[C@H]1c1ccc(C(=O)O)cc1 | 360 | 1000 |  |
| COc1cc(C)c2[nH]ccc2c1CN1CCN(CCC(F)(F)F)C[C@H]1c1ccc(C(=O)NS(C)(=O)=O)cc1 | 56 | 65 |  |
| Ac-ICVDhtQDWGAHRCT-COOH [Ac-V4Dht/H9A-OH] |  |  | 5 |
| COc1cc(C)c2[nH]ccc2c1CN1CCN(CCCF)CC1c1ccc(C(=O)O)cc1 (stereo not drawn) | 119 | 153 |  |
| COc1cc(C)c2[nH]ccc2c1CN1CCN(Cc2ncc[nH]2)C[C@@H]1c1ccc(C(=O)O)cc1 |  | > 10000 |  |

| Molecule | IC50 (C3 convertase (CVF:Bb)) [nM] | IC50 [1] [nM] | Activity over compstatin (complement activation) [xmore] |
| --- | --- | --- | --- |
| COc1cc(C)c2[nH]ccc2c1CN1CCN(Cc2ncc[nH]2)C[C@H]1c1ccc(C(=O)O)cc1 | > 10000 | 8860 |  |
| Ac-ICVWQD(5fW)GAHRCT-CONH2 [Ac-V4W/W7(5fW)/H9A] |  |  | 121 |
| COc1cc(C)c2[nH]ccc2c1CN1CCN(CC(F)F)C[C@H]1c1ccc(C(=O)NS(C)(=O)=O)cc1 | 243 | 8 |  |
| Ac-ICVYQDWGAHRCT-CONH2 [Ac-V4Y/H9A] |  |  | 14 |
| COc1cc(C)c2[nH]ccc2c1CN1CCN(CC(F)(F)F)C[C@H]1c1ccc(C(=O)O)cc1 | 176 | 174 |  |
| Cc1cc(C2CC2)c(CN2CCN(CC(F)F)C[C@H]2c2ccc(C(=O)O)cc2)c2cc[nH]c12 [drawing 450] |  | 396 |  |
| COc1cc(C)c2[nH]ccc2c1CN1CCN(C)CC1c1ccc(C(=O)O)cc1 (stereo not drawn) | 163 | 1570 |  |
| COc1cc(C)c2[nH]ccc2c1CN1CCN(C2CC2)CC1c1ccc(C(=O)O)cc1 (stereo not drawn) | 141 | 29 |  |
| Ac-ICV(1-Nal)QDWGAHRCT-COOH [Ac V4(1-Nal)/H9A-OH] |  |  | 30 |
| COc1cc(C)c2[nH]ccc2c1CN1CCN(CCC(F)(F)F)C[C@H]1c1ccc(C(=O)O)nc1 | 96 | 34 |  |
| H-GICV(6fW)QD(6fW)GAHRCTN-COOH [+G/V4(6fW)/W7(6fW)H9A + N-OH] |  |  | 126 |
| Ac-ICV(2-Igl)QDWGAHRCT-COOH [Ac-V42Igl/H9A-OH] |  |  | 37 |
| COc1cc(C)c2[nH]ccc2c1CN1CCN(CC(C)(F)F)C[C@H]1c1ccc(C(=O)O)cc1 | 272 | 211 |  |
| CCN1CCN(Cc2c(OC)cc(C)c3[nH]ccc23)C(c2ccc(C(=O)O)cc2)C1 (stereo not drawn) | 219 | 205 |  |
| Ac-ICV(2-Nal)QDWGAHRCT-CONH2 [Ac-V4(2-Nal)/H9A] |  |  | 99 |
| Ac-ICWVQDWGHHRCT-CONH2 (Ac-ICWVQDWGHHRCT-NH2; not fully specified (bridges); printed as Ac-ICWVQDWGHHRCT-CONH2; cysteine pairing not given here) [Ac-compstatin, "compstatin analogs useful in the present disclosure"] |  |  | 3 |
| [2H]C([2H])([2H])N1CCN(Cc2c(OC)cc(C)c3[nH]ccc23)[C@H](c2ccc(C(=O)O)cc2)C1 | 65 | 9 |  |
| COc1cc(C)c2[nH]ccc2c1CN1CCN(CCF)CC1c1ccc(C(=O)O)cc1 (stereo not drawn) | 65 | 107 |  |
| Ac-ICVWQDWGAHRCdT-COOH [Ac-V4W/H9A/T13dT-OH] |  |  | 55 |
| COc1cc(C)c2[nH]ccc2c1CN1CCN(C(C)CC(F)(F)F)C[C@H]1c1ccc(C(=O)O)cc1 (stereo partly drawn) |  | 110 |  |
